Patent US8703769B2, “Use of EGFR inhibitors to prevent or treat obesity” (The University of North Carolina at Chapel Hill, priority 2005, dated 2014)

Legend:
Format in all cases: in vivo
EGFR [1] = molecular target: T1, EGFR (Mus musculus, UniProt Q01279); assay: High fat diet with or without AG1478 for about 1 month, C57BL/6 male mice (Example 2); conditions: for accumulation of adipose tissue (percent body fat by DEXA): C57BL/6 male mice, HFD + AG1478 (144 ppm in diet) vs HFD alone, FIGS. 9-12
T1 construct: from tissue; host or cells: whole animal: wild-type C57BL/6J male mice
T1 sequence (Q01279 25-1210): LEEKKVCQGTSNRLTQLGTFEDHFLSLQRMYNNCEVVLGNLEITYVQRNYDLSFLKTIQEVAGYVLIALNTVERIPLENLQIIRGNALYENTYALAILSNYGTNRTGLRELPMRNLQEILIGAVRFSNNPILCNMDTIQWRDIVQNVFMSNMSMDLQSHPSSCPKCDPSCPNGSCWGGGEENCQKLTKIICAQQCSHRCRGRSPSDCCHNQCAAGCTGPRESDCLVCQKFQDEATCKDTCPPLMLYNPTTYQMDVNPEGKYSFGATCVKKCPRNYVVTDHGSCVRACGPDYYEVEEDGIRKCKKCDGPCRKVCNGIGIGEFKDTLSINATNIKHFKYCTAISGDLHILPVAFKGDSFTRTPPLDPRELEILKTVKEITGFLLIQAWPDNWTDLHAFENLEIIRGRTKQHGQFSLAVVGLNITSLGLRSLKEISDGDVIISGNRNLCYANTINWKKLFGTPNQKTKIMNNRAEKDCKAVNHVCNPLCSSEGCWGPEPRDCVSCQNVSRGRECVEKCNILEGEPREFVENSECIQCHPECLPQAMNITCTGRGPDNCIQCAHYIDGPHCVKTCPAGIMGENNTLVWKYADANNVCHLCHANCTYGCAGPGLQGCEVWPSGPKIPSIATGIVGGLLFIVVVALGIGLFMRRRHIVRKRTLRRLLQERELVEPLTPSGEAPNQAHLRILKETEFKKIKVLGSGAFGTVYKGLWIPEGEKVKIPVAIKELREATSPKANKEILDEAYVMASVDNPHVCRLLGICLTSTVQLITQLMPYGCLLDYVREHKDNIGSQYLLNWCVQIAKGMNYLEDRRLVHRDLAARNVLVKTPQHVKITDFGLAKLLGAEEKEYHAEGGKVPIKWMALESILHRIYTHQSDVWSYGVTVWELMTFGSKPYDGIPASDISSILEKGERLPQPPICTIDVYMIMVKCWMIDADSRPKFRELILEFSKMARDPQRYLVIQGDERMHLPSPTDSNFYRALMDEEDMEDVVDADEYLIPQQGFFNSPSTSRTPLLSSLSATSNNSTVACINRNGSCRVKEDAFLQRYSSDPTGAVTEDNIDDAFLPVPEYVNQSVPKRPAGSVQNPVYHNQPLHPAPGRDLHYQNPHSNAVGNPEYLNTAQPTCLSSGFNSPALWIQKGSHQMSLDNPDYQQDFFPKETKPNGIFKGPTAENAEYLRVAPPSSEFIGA
Description: (§1) Diets: A base Western Diet (D12079B, Research Diets, Inc., New Brunswick, N.J., U.S.A.) having 41% fat (kcal) was used in all studies, and is designated HFD. The small molecule inhibitor AG1478 (LC Laboratories, Woburn, Mass., U.S.A.) was added to this base diet to a final concentration of […]. This diet is designated HFD+INH.
(§2) In experiments using wild-type C57BL6/J (B6) mice, male mice were housed individually and were started on the diet experiments at 8 weeks of age. In Example 2, mice were maintained on the HFD or HFD+INH for 1 month. In Example 3, mice were maintained on the HFD (n=8) or HFD+INH (n=8) for 6 months. In Example 4, all mice were placed on the HFD for 3 months; after this time, Group 1 (n=4) was placed on HFD+INH, while Group 2 (n=4) was maintained on HFD.
(§3) Clinical chemistry: Non-fasted blood glucose levels were measured at baseline and monthly using the FREESTYLE® blood glucose monitor (Abbott Laboratories, Abbott Park, Ill., U.S.A.) which was calibrated per manufacturer's instruction prior to use. All measurements were taken from 4-5 pm. At sacrifice, blood was collected by retro-orbital bleed and serum was isolated. Serum concentrations of triglycerides and total cholesterol were measured using an automatic blood chemical analyzer (Johnson & Johnson, New Brunswick, N.J., U.S.A.) by the University of North Carolina at Chapel Hill Animal Clinical Chemistry and Gene Expression Laboratories Core.
(§4) Body composition analysis: On the day of analysis, mice were weighed, anaesthetized with 2-3% isofluorane, and body composition was determined with a PIXIMUS II™ Mouse Densitometer (GE Medical Systems, distributed by Faxitron X-Ray Corporation, Wheeling, Ill., U.S.A.) using software versions 1.46 and 2.10. These measurements were taken at baseline and monthly during the diet studies. The Dual-energy X-ray absorptiometry (DEXA) method of determining body composition and body fat has been validated in lean and obese mice (Brommage (2003) J Physiol Endocrinol Metab 285: E454-459).
(§5) Statistical analysis: Results are expressed as mean+/−STD. A two-sided unpaired student's t-test was used for preliminary statistical analysis.
FIGS. 9-12 depict the results of C57BL/6 male mice exposed either to a high fat diet (HFD; […]) or the HFD base diet plus the EGFR small molecule inhibitor AG1478 (144 ppm) for about 1 month. The mice were approximately 6 weeks old when started on the dietary study. Male littermates were housed together, so the data are shown as the mean per cage. There is an n of […] for the mice on the HFD+inhibitor (INH), with two test groups of 6 (HFD+INH1 and HFD+INH2) and an n of 4 for the HFD cage.

EGFR [2] = molecular target: T1, EGFR; assay: High fat diet with or without AG1478 for 6 months, B6 male mice (Example 3)
Description: as §1, §2, §3, §4, §5
In order to determine if the short-term effects on weight gain due to the inhibitor action were applicable over a longer time period, the experiments of Example 2 were extended over six months.
Baseline measurements (body weights, blood glucose, and percent body fat) were taken of 2-month-old male C57 BL/6J (B6) mice which were then housed individually and randomly assigned to receive either HFD or HFD+Inhibitor A (AG 1478). Measurements were again assessed at 1, 2 and 6 months of treatment. All mice were sacrificed at month 6. At sacrifice, blood was collected for clinical chemistry. Heart, liver and fat depots were also dissected and weighed. A two-sided unpaired student's t-test was used for preliminary statistical analysis.

EGFR [3] = molecular target: T1, EGFR; assay: Already obese B6 male mice on HFD switched to HFD+INH (Example 4); conditions: n=4 per group
Description: as §1, §2, §3, §4, §5
In order to assess whether EGFR inhibitors can effect weight loss or stasis in an already obese subject, obese mice were administered an EGFR inhibitor and body mass and chemistry measurements made over time while maintaining a HFD. Specifically, baseline measurements were taken of 2 month-old male B6 mice, which were then housed individually and placed on a HFD for 2 months. Body weights, blood glucose, and percent body fat were assessed at this time point, and mice were randomly assigned to two groups. Group 1 (Grp1) was continuously fed the HFD, while Group 2 (Grp2) was switched to the HFD+INH after the initial two months. Measurements were again assessed at 1 and 3 months after the diet switch (experimental month 3 and 5). All mice were sacrificed at month 5. At sacrifice, blood was collected for clinical chemistry and heart, liver and fat depots were dissected and weighed. A two-sided unpaired student's t-test was used for preliminary statistical analysis.

[4] = HFD+inhibitor A vs HFD alone, six months, n=8 per group, FIG. 14
[5] = plasma after 6 months, 7-8 mice per group, HFD+Inhibitor A vs HFD, FIG. 17
[6] = between treatment groups at sacrifice (month 5), FIG. 20B
[7] = between treatment groups, FIG. 21

Q: For COc1cc2ncnc(Nc3cccc(Cl)c3)c2cc1OC [AG1478, 4-(3-Chloroanillino)-6,7-dimethoxyquinazoline], which “accumulation of adipose tissue (percent body fat by DEXA)” value (EGFR [1]; about 1 month) is on record?
A: reduction in adipose tissue accumulation

Q: What about the “accumulation of adipose tissue (percent body fat by DEXA)” value (EGFR [1]; about 1 month, listed as AG 1478) of the same compound?
A: successfully inhibited the accumulation of adipose tissue

Q: What about the body weight gain (EGFR [1]; HFD+INH vs HFD control mice, one month, FIG. 11) of the same compound?
A: gained less body weight

Q: And the “food consumption per mouse per day” value (EGFR [1]; HFD+INH vs HFD, about 1 month, estimated from total food remaining per day, FIG. 10)?
A: no significant difference

Q: And the “body weight (BW)” value (EGFR [2]; B6 male mice, HFD+inhibitor A vs HFD alone, 6 months, n=8 per group, FIG. 13)?
A: significantly decreased

Q: And the “percent body fat as assessed by DEXA” value (EGFR [2]; B6 male mice, HFD+inhibitor A vs HFD alone, 6 months, n=8 per group, p<0.001, FIG. 13)?
A: significantly decreased

Q: What about the fat mass (EGFR [2]; [4]) of the same compound?
A: decreased

Q: What about the lean body mass (EGFR [2]; [4]) of the same compound?
A: no change

Q: What about the gross heart weight (EGFR [2]; after 6 months, HFD+Inhibitor A vs HFD, FIG. 16) of the same compound?
A: no significant differences

Q: And the gross liver weight (EGFR [2]; after 6 months, HFD+Inhibitor A vs HFD, p<0.02, FIG. 16)?
A: significantly reduced

Q: And the “fat mass in the four major fat depots (intraperitoneal, intrascapular, kidney, perigonadal)” value (EGFR [2]; dissection after 6 months, HFD+Inhibitor A vs HFD, FIG. 15)?
A: decreased fat mass in all four major fat depots

Q: And the total cholesterol level (EGFR [2]; [5])?
A: significantly lower

Q: And the triglyceride level (EGFR [2]; [5])?
A: significantly lower

Q: What about the “percent increase in BW relative to BW at 2 months on HFD” value (EGFR [3]; Group 2 (HFD+Inhibitor A) vs Group 1 (HFD), after 1 and 3 months on HFD+Inhibitor A, p<0.02, FIG. 18) of the same compound?
A: significantly lower

Q: What about the “percent increase in BF (H), body fat by DEXA relative to time of diet change” value (EGFR [3]; Group 2 vs Group 1, after 3 months on HFD+Inhibitor A, p<0.02, FIG. 19) of the same compound?
A: significantly lower

Q: What about the fat depot weights (EGFR [3]; between treatment groups at sacrifice (month 5), FIG. 20A) of the same compound?
A: No significant differences

Q: What about the heart weight (EGFR [3]; [6]) of the same compound?
A: No significant differences

Q: What about the liver weight (EGFR [3]; [6]) of the same compound?
A: No significant differences

Q: What about the blood glucose level (EGFR [3]; [7]) of the same compound?
A: no significant differences

Q: What about the total cholesterol level (EGFR [3]; [7]) of the same compound?
A: no significant differences

Q: And the triglyceride level (EGFR [3]; [7])?
A: no significant differences
